Results as given in patent US10464947B2 (Incyte Corporation, priority 2013, dated 2019).
Where a name gives a salt, the structure may show the parent alone. Read-outs that look alike come from different tables or passages of the source.

Columns and labels:
BRD4-BD1 = BRD4-BD1 (Homo sapiens (Human), UniProt O60885); test: BRD4 AlphaScreen Assay (Example A1), BRD4-BD1; format: binding; conditions: H4Ac4 peptide, 3.8 nM BRD4-BD1, read-out: BRD4 BD-1 enzyme IC50
Protocol: (§1) BRD4-BD1 and BRD4-BD2 assays were conducted in white 384-well polystyrene plate in a final volume of 20 μL for BD1 and 40 μL for BD2. Inhibitors were first serially diluted in DMSO and added to the plate wells before the addition of other reaction components. […] After plate sealing, the plate was incubated in the dark at room temperature for 75 min. before reading on a PHERAstar FS plate reader (BMG Labtech). IC50 determination was performed by fitting the curve of percent control activity versus the log of the inhibitor concentration using the GraphPad Prism 5.0 software.

BRD4-BD2 = BRD4-BD2 (Homo sapiens (Human), UniProt O60885); test: BRD4 AlphaScreen Assay (Example A1), BRD4-BD2; format: binding; conditions: H4Ac4 peptide, 20 nM BRD4-BD2, read-out: BRD4 BD-2 enzyme IC50
Protocol: as §1

KMS.12.BM cells = test: KMS.12.BM Cell Viability Assay (Example B1); format: cell-based, human; conditions: 3 days, Cell Titer-GLO, read-out: KMS cellular IC50
Summary of the method: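 KMS.12.BM human myeloma cells, 5000 cells/well in RPMI with 10% FBS, exposed to a compound concentration range for 3 days. Viable cells measured by ATP-based Cell Titer-GLO luminescence after 10 min at room temperature.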

C-myc in KMS.12.BM cells = test: KMS.12.BM C-Myc ELISA Assay (Example C1); format: cell-based; conditions: Homo sapiens, 2 h
Protocol: KMS.12.BM C-Myc ELISA Assay
KMS.12.BM cell line (human myeloma) was purchased from JCRB (Osaka, Japan) and maintained in RPMI with 10% FBS culture medium. To measure the C-myc inhibitory activity of the compounds, the KMS.12.BM cells are plated in the RPMI culture medium at 75000 cells/well/per 200 μL into a 96-well flat bottom polystyrene tissue culture plate (Corning through VWR, NJ), in the presence or absence of a concentration range of test compounds. After 2 h, cells are pelleted and lysed with Cell Extraction Buffer (BioSource, Carlsbad, Calif.) in the presence of protease inhibitors (Life Technologies, Grand Island, N.Y. and Sigma, St Louis, Mo.). Clarified lyses are tested in a C-myc commercial ELISA (Life Technologies, Grand Island, N.Y.).

SMILES	IC50 (C-myc in KMS.12.BM cells)	IC50 (KMS.12.BM cells; Homo sapiens, 72 h)	other results
Cc1noc(C)c1-c1ccc2[nH]c(=O)n3c2c1OCC3c1ccccc1 (single isomer, unassigned) [Example 1B, 7-(3,5-Dimethylisoxazol-4-yl)-4-phenyl-4,5-dihydroimidazo[1,5,4-de][1,4]benzoxazin-2(1H)-one]			IC50 (BRD4-BD1): 100 to 1000 nM; IC50 (BRD4-BD2): 100 to 1000 nM
CNC(=O)c1ncccc1C1COc2c(-c3c(C)noc3C)ccc3[nH]c(=O)n1c23 (stereo not shown) [Example 128, 3-[7-(3,5-Dimethylisoxazol-4-yl)-2-oxo-1,2,4,5-tetrahydroimidazo[1,5,4-de][1,4]benzoxazin-4-yl]-N-methylpyridine-2-carboxamide]	< 1000 nM	< 1000 nM	
Cc1noc(C)c1-c1ccc2nc(NCCO)n3c2c1OCC3c1ccccc1 (stereo not shown) [Example 29, 2-{[7-(3,5-Dimethylisoxazol-4-yl)-4-phenyl-4,5-dihydroimidazo[1,5,4-de][1,4]benzoxazin-2-yl]amino}ethanol]	< 1000 nM	< 1000 nM	
CNc1nc2ccc(-c3c(C)noc3C)c3c2n1C(c1ccccc1)CO3 (stereo not shown) [Example 26, 7-(3,5-Dimethylisoxazol-4-yl)-N-methyl-4-phenyl-4,5-dihydroimidazo[1,5,4-de][1,4]benzoxazin-2-amine]	< 1000 nM	< 1000 nM	
CCNC(=O)c1ncccc1C1COc2c(-c3c(C)noc3C)ccc3[nH]c(=O)n1c23 (single isomer, unassigned) [Example 133, 3-[7-(3,5-dimethylisoxazol-4-yl)-2-oxo-1,2,4,5-tetrahydroimidazo[1,5,4-de][1,4]benzoxazin-4-yl]-N-ethylpyridine-2-carboxamide]	< 1000 nM	< 1000 nM	
CNC(=O)c1nc2ccc(-c3c(C)noc3C)c3c2n1[C@@H](c1ccccn1)CO3 [Example 95, (4S)-7-(3,5-Dimethylisoxazol-4-yl)-N-methyl-4-pyridin-2-yl-4,5-dihydroimidazo[1,5,4-de][1,4]benzoxazine-2-carboxamide]	< 1000 nM	< 1000 nM	
Cc1noc(C)c1-c1cc(CNC(=O)Cc2ccccc2)c2[nH]c(=O)n3c2c1OC[C@@H]3c1ccccn1 [Example 139, N-{[(4S)-7-(3,5-Dimethylisoxazol-4-yl)-2-oxo-4-pyridin-2-yl-1,2,4,5-tetrahydroimidazo[1,5,4-de][1,4]benzoxazin-9-yl]methyl}-2-phenylacetamide]	1000 to 10000 nM	< 1000 nM	
Cc1noc(C)c1-c1ccc2c3c1OCC(c1ccccc1)n3c(=O)n2CCN1CCOCC1 (stereo not shown) [Example 10, 7-(3,5-Dimethylisoxazol-4-yl)-1-(2-morpholin-4-ylethyl)-4-phenyl-4,5-dihydroimidazo[1,5,4-de][1,4]benzoxazin-2(1H)-one]	< 1000 nM		IC50 (KMS.12.BM cells; Homo sapiens, KMS-12-BM, 72 h): < 1000 nM
COc1ccccc1C1COc2c(-c3c(C)noc3C)ccc3[nH]c(=O)n1c23 (stereo not shown) [Example 7, 7-(3,5-Dimethylisoxazol-4-yl)-4-(2-methoxyphenyl)-4,5-dihydroimidazo[1,5,4-de][1,4]benzoxazin-2(1H)-one]	< 1000 nM	< 1000 nM	
Cc1noc(C)c1-c1ccc2nc(NC(C)C)n3c2c1OCC3c1ccccc1 (stereo not shown) [Example 25, 7-(3,5-Dimethylisoxazol-4-yl)-N-isopropyl-4-phenyl-4,5-dihydroimidazo[1,5,4-de][1,4]benzoxazin-2-amine]	< 1000 nM	< 1000 nM	
Cc1noc(C)c1-c1ccc2[nH]c(=O)n3c2c1OCC3c1cccnc1CN (stereo not shown) [Example 130, 4-[2-(Aminomethyl)pyridin-3-yl]-7-(3,5-dimethylisoxazol-4-yl)-4,5-dihydroimidazo[1,5,4-de][1,4]benzoxazin-2(1H)-one bis(trifluoroacetate)]	< 1000 nM	< 1000 nM	
Cc1noc(C)c1-c1ccc2[nH]c(=O)n3c2c1OCC3c1cccnc1C(N)=O (stereo not shown) [Example 127, 3-[7-(3,5-Dimethylisoxazol-4-yl)-2-oxo-1,2,4,5-tetrahydroimidazo[1,5,4-de][1,4]benzoxazin-4-yl]pyridine-2-carboxamide trifluoroacetate]	< 1000 nM	< 1000 nM	

Continued, in another order:

IC50 (C-myc in KMS.12.BM cells)	SMILES	IC50 (KMS.12.BM cells; Homo sapiens, 72 h)	other results
< 1000 nM	Cc1noc(C)c1-c1cc(CNS(C)(=O)=O)c2[nH]c(=O)n3c2c1OC[C@@H]3c1ccccn1 [Example 141, N-{[(4S)-7-(3,5-Dimethylisoxazol-4-yl)-2-oxo-4-pyridin-2-yl-1,2,4,5-tetrahydroimidazo[1,5,4-de][1,4]benzoxazin-9-yl]methyl}methanesulfonamide]	< 1000 nM	
< 1000 nM	CCNc1nc2ccc(-c3c(C)noc3C)c3c2n1C(c1ccccc1)CO3 (stereo not shown) [Example 27, 7-(3,5-Dimethylisoxazol-4-yl)-N-ethyl-4-phenyl-4,5-dihydroimidazo[1,5,4-de][1,4]benzoxazin-2-amine]	< 1000 nM	
< 1000 nM	Cc1noc(C)c1-c1ccc2[nH]c(=O)n3c2c1OCC3c1nccs1 (stereo not shown) [Example 21, 7-(3,5-Dimethylisoxazol-4-yl)-4-(1,3-thiazol-2-yl)-4,5-dihydroimidazo[1,5,4-de][1,4]benzoxazin-2(1H)-one]	< 1000 nM	
< 1000 nM	CC(=O)N1CC=C(c2nc3ccc(-c4c(C)noc4C)c4c3n2[C@@H](c2ccccn2)CO4)CC1 [Example 110, (4S)-2-(1-acetyl-1,2,3,6-tetrahydropyridin-4-yl)-7-(3,5-dimethylisoxazol-4-yl)-4-pyridin-2-yl-4,5-dihydroimidazo[1,5,4-de][1,4]benzoxazine]	< 1000 nM	
< 1000 nM	Cc1noc(C)c1-c1ccc2nc(N(C)C)n3c2c1OCC3c1ccccc1 (stereo not shown) [Example 28, 7-(3,5-Dimethylisoxazol-4-yl)-N,N-dimethyl-4-phenyl-4,5-dihydroimidazo[1,5,4-de][1,4]benzoxazin-2-amine]	< 1000 nM	
< 1000 nM	Cc1noc(C)c1-c1ccc2[nH]c(=O)n3c2c1OCC3c1ccc(F)cc1F (stereo not shown) [Example 8, 7-(3,5-Dimethylisoxazol-4-yl)-4-(2,4-difluorophenyl)-4,5-dihydroimidazo[1,5,4-de][1,4]benzoxazin-2(1H)-one]	< 1000 nM	
< 1000 nM	Cc1noc(C)c1-c1ccc2nc(N(C)CCO)n3c2c1OCC3c1ccccc1 (stereo not shown) [Example 34, 2-[[7-(3,5-Dimethylisoxazol-4-yl)-4-phenyl-4,5-dihydroimidazo[1,5,4-de][1,4]benzoxazin-2-yl](methyl)amino]ethanol]	< 1000 nM	
< 1000 nM	Cc1noc(C)c1-c1ccc2[nH]c(=O)n3c2c1OCC3c1ccccc1 (single isomer, unassigned) [Example 1A, 7-(3,5-Dimethylisoxazol-4-yl)-4-phenyl-4,5-dihydroimidazo[1,5,4-de][1,4]benzoxazin-2(1H)-one]		IC50 (BRD4-BD1): ≤ 100 nM; IC50 (BRD4-BD2): ≤ 100 nM; IC50 (KMS.12.BM cells): < 1000 nM
< 1000 nM	COCC(=O)NCc1cc(-c2c(C)noc2C)c2c3c1[nH]c(=O)n3[C@@H](c1ccccn1)CO2 [Example 140, N-{[(4S)-7-(3,5-Dimethylisoxazol-4-yl)-2-oxo-4-pyridin-2-yl-1,2,4,5-tetrahydroimidazo[1,5,4-de][1,4]benzoxazin-9-yl]methyl}-2-methoxyacetamide]	< 1000 nM	
< 1000 nM	Cc1noc(C)c1-c1ccc2[nH]c(=O)n3c2c1OCC3c1ccc(C#N)cc1 (stereo not shown) [Example 4, 4-[7-(3,5-Dimethylisoxazol-4-yl)-2-oxo-1,2,4,5-tetrahydroimidazo[1,5,4-de][1,4]benzoxazin-4-yl]benzonitrile]	< 1000 nM	
< 1000 nM	Cc1noc(C)c1-c1ccc2c3c1OCC(c1ccccc1)n3c(=O)n2C (stereo not shown) [Example 2, 7-(3,5-Dimethylisoxazol-4-yl)-1-methyl-4-phenyl-4,5-dihydroimidazo[1,5,4-de][1,4]benzoxazin-2(1H)-one]	< 1000 nM	
< 1000 nM	Cc1noc(C)c1-c1ccc2nc(C)n3c2c1OCC3c1ccccc1 (stereo not shown) [Example 9, 7-(3,5-Dimethylisoxazol-4-yl)-2-methyl-4-phenyl-4,5-dihydroimidazo[1,5,4-de][1,4]benzoxazine]	< 1000 nM	
< 1000 nM	CC(=O)NCc1cc(-c2c(C)noc2C)c2c3c1[nH]c(=O)n3[C@@H](c1ccccn1)CO2 [Example 138, N-{[(4S)-7-(3,5-Dimethylisoxazol-4-yl)-2-oxo-4-pyridin-2-yl-1,2,4,5-tetrahydroimidazo[1,5,4-de][1,4]benzoxazin-9-yl]methyl}acetamide trifluoroacetate]	< 1000 nM	
